According to US20080299076A1, “Compunds and compositions that cause non-apoptotic cell death and uses thereof” (priority 2006, published 2008):

Assays:
Type in all cases: cell-based, human
[1] = tested on: BJ-TERT/LT/ST/RAS^V12 cells; test: Alamar Blue viability assay
Protocol: (a) Calu-1 lung carcinoma cells harboring oncogenic KRAS were infected with lentivirus containing shRNAs targeting KRAS or GFP. Sequences of shRNAs are indicated by starting nucleotide (nt) in the KRAS mRNA coding sequence. Cells were treated with erastin and viability measured by Trypan Blue exclusion. (b) Knockdown of KRAS was confirmed by western blot. (c,d) A673 cells harboring oncogenic BRAF were infected with lentiviral shRNAs targeting BRAF exon 5 (c) or the 5′ UTR (d), luciferase (LUC) (c) or GFP (d). Cells were treated with erastin and viability measured using Alamar Blue (c) and Trypan Blue (d). (e) Knockdown of BRAF was confirmed by western blot. […] BJ-TERT/LT/ST/RAS^V12 cells were treated with erastin alone or in with a MEK inhibitor U0126 (20 μM), MEK inhibitor I (10 μM) or MEK 1/2 inhibitor (50 μM). After 48 h, viability was determined using Trypan Blue. (g) Structures of certain erastin and related analogs. (h) and (i) Dose-response curves were measured for erastin A3 and erastin B2 in BJ-TERT/LT/ST/RAS^V12 cells (black squares) or BJ-TERT cells (grey circles). (j) Calu-1 lung carcinoma cells harboring oncogenic KRAS were infected with lentivirus containing shRNAs targeting KRAS or GFP. Sequences of shRNAs are indicated by starting nucleotide (nt) in the KRAS mRNA coding sequence. Cells were treated with erastin and viability (y-axis) measured by Trypan Blue exclusion. Cells were treated with erastin for 24 hours, and percent inhibition of viability (y-axis) measured using Alamar Blue (k) and Trypan Blue (l). (m) Structures of erastin and related analogs. (n) Dose-response curves were measured for erastin A6, erastin B2, erastin A8 and erastin A9 in BJ-TERT/LT/ST/RAS^V12 cells (squares) or BJ-TERT cells (circles) using Alamar Blue.
Alamar Blue metabolism: 10% Alamar Blue was added to assay plates, which were then incubated for an additional 16 hours. Red fluorescence, resulting from reduction of Alamar Blue, was detected on a Victor3 platereader (ex: 530, em: 590).
Table 2. Activity of RAS-selective lethal compound erastin in tumor cell lines. IC50 values (ng/mL) are shown using the Alamar Blue viability assay. BJ engineered tumor cells express TERT, LT, ST, and oncogenic RAS. Isogenic RAS^V12 lacking cells are identical but lack HRAS^V12. BJ-DRD cells are derived from BJ cells and contain TERT, oncogenic RAS, a truncated from of p53 (p53DD) that disrupts the tetramerization of endogenous p53, a CDK4(R24C) mutant resistant to inhibition by p16INK4A and p151NK4B (the major negative regulators of CDK4) and cyclin D1. These latter protein substitute for LT. HCT-116, A549, Calu-1, and MIA PaCa-2 are tumor cells derived from cancers (colon, lung, lung and pancreatic, respectively) known to have activating mutations in RAS.

PARP1 = PARP1 cleavage (western blot); settings: BJ-TERT/LT/ST/RAS^V12 cells; staurosporine 1 μM 6 h, camptothecin 1 μM 18 h, erastin 20 μg/mL
Protocol: BJ-TERT/LT/ST/RAS^V12 tumor cells were seeded in six-well dishes, incubated overnight at 37° C. with 5% CO2 and were treated with nothing (NT), staurosporine (ST, 1 μM) for 6 h, camptothecin (C, 1 μM) for 18 h, or erastin (20 μg/mL) for the indicated time, lysed and analyzed by western blot with an anti-PARP1 antibody. A relatively high concentration of erastin was used to ensure loss of PARP cleavage was not due to a concentration-dependent effect.
BJ-TERT/LT/ST/RAS^V12 cells were seeded in polystyrene 100×20 mm dishes (Falcon/#353003) in 10 ml of media. Three million cells were seeded in each dish. After overnight incubation at 37° C. with 5% CO2, BJ-TERT/LT/ST/RAS^V12 cells were treated with nothing, staurosporine (1 μM) for 6 h, camptothecin (1 μM) for 18 h or erastin (20 μg/mL) for 6, 10, 12, 12.5, 13, 14, 18 or 26 h, and prepared for western blotting.

[2] = tested on: BJ-TERT/LT/ST/RAS^V12 cells; test: Oxidative species detection (H2DCF-DA, flow cytometry); settings: 4.6 μM erastin
Protocol: BJ-TERT/LT/ST/RAS^V12 cells (shown in histogram plots and in line graph, dark line) and BJ-TERT cells (shown in line graph only, light line) were treated with 4.6-μM erastin and the level of intracellular oxidative species determined using 2′7′-dichlorodihydrofluorescein diacetate (H2DCF-DA, Molecular Probes) and flow cytometry. Cells were seeded at 3×10^5 cells per dish in 60-mm dishes and allowed to grow overnight. Cells were incubated with 10 μM of H2DCF-DA for 10 minutes, harvested by trypsinization, washed twice with cold PBS, re-suspended in 100 μl of PBS and incubated with 5 μl of 50-μg/ml propidium iodide for 10 minutes. 400 μl of PBS was added and the solution analyzed by flow cytometry (FACSCalibur-Becton-Dickinson).
2′7′-dichlorodihydrofluorescein diacetate (H2DCF-DA, Molecular Probes) was used to measure oxidative species by flow cytometry. Non-fluorescent H2DCF-DA is cleaved by endogenous esterases and then is oxidized to generate fluorescent dichlorofluorescein (DCF). BJ-TERT/LT/ST/RAS^V12 and BJ-TERT cells were seeded at 3×10^5 cells per dish in 60-mm dishes and allowed to grow overnight. Cells were treated with 4.6 μM erastin for 2, 4, 6, 8, 10 and 12 h. […] 400 μl of PBS was added and the solution analyzed by flow cytometry (FACSCalibur-Becton-Dickinson). FL1-H indicates DCF fluorescence units detected.

[3] = tested on: BJ-TERT/LT/ST/RAS^V12 cells; test: Annexin V staining; settings: erastin 9 μM
Protocol: The percentage of cells in the indicated Ml region were 6%, 6%, and 38% in untreated, erastin-treated (9 μM), and camptothecin-treated (1 μM), respectively.

`CCOc1ccccc1-n1c(C(C)N2CCN(C(=O)COc3ccc(Cl)cc3)CC2)nc2ccccc2c1=O` (centres unmarked) [erastin, 2-(1-{4-[2-(4-Chloro-phenoxy)-acetyl]-piperazin-1-yl}-ethyl)-3-(2-ethoxy-phenyl)-3H-quinazolin-4-one] was tested, and the RAS-selective lethality ([1]; HRAS^V12-expressing versus HRAS^V12-deficient cells) was “at least 16 fold”, the RAS selectivity ([1]; IC50 in BJ-TERT/LT/ST versus BJ-TERT/LT/ST/RAS^V12) was >16 and the PARP1 cleavage (PARP1) was “unaffected”. For the same compound, the “Formation of oxidative species” value [2] was “oxidizing species were detected” and the “percentage of cells in M1 region (Annexin V staining)” value [3] was 6%.
